# Measured values: US20150359866A1, “TREATMENT OF CERVICAL AND RELATED […] TOPICAL IMMUNOMODULATORS” (THE JOHNS HOPKINS UNIVERSITY, priority 2014, published 2015)
# Test system: CIN2/3 lesions associated with HPV genotypes other than HPV16
# Test: Clinical trial of topical imiquimod on CIN 2/3 lesions (lesion regression)
# Assay type: in vivo, human
# Text: Treatment protocol. In an embodiment, patients are screened at their initial colposcopic evaluation for referral for evaluation of high grade pap smears. Immunocomptetent patients with biopsy-confirmed CIN2/3 which is HPV16 negative will be eligible for enrollment. Both treatment and control groups will be assessed for histologic diagnosis at week 15, change in cervical quantitative HPV viral load, safety, toxicity, tolerability, and for measures of local mucosal immune responses. Patients will be given imiquimod (5%) or vehicle at Day 0, week 4, and week 8 and then histological diagnosis is determined at week 15.
# Imiquimod administration on the lesion at each vaccination. In an embodiment, patients received a total of three applications of imiquimod directly on the cervical lesion, one application at the time of each vaccination. One single use packet containing 250 mg of 5% imiquimod was used for each treatment. After insertion of a vaginal speculum, the cream is applied directly to the lesion by the PI, using a cotton-tipped applicator. The speculum is withdrawn, and a tampon is placed as a medication barrier. Patients will be instructed to leave the tampon in place for about 4 to 6, and no more than 10 hours. […]
# Clinical trial results. […] Subjects were monitored for mucosal irritation. […]
smiles,measurement,setting,value
"CC(C)Cn1cnc2c(N)nc3ccccc3c21 [imiquimod, 1-(2-methylpropyl)-1H-imidazo[4,5-c]quinolin-4-amine]",rate of regression relative to untreated HPV16-negative CIN2/3 patients,"FIG. 4, untreated rate in same timeframe 30-40%",nearly double
same,rate of regression of CIN2/3 lesions,"HPV16-negative subjects, 12.5 mg imiquimod in 250 mg cream applied to the cervical lesion three times at four-week intervals, assessed eight weeks after third application, 10/16 subjects",62.5%
